Format in all cases: physicochemical
Data set [1] in a line: Evaluation of maximum absorption wavelength, half-width and absorbance ratio (liquid absorption spectrum). The conditions noted are these: measuring solvent chloroform; 2.5×10^−6 mol/L; optical path length 10 mm. The protocol:
—Evaluation of Maximum Absorption Wavelength, Half-Width, and Absorbance Ratio—Respective compounds were dissolved in measuring solvents (concentration: 2.5×10^−6 mol/L) described in the table below so as to measure an absorption spectrum (Optical path length: 10 mm).
Maximum absorption wavelengths (λmax) of absorption spectrums, half-widths of the maximum absorption wavelengths, and absorbance ratios (550 nm/λmax) which are values obtained by dividing absorbance at a wavelength of […] by absorbance at the maximum absorption wavelength with respect to respective compounds are presented in Table 1 below. FIG. 3 illustrates an absorption spectrum of the compound D-1 in chloroform.

The nature of data set [2]: Heat resistance of near infrared ray absorption filter (ΔEab before/after heating). The conditions noted are these: filter 1.0 μm, 7.5 mass % compound; 260° C. for 30 minutes on hot plate; ΔEab class. The protocol:
(§1) Compositions below were mixed so as to prepare the composition. A solid content of the composition is 31 mass % and a content of the near infrared ray absorption substance with respect to the total solid content of the composition was 7.5 mass %.
(§2) Glass substrates (1737 manufactured by Corning Incorporated) were coated with respective compositions by using a spin coater such that film thicknesses after drying become 1.0 μm, and a heating treatment (prebaking) was performed for 120 seconds by using a hot plate of 100° C.
(§3) Subsequently, beta exposure was performed by 500 mJ/cm^2 by using an i-ray stepper exposure device FPA-3000i5+ (manufactured by Canon Inc.). Subsequently, puddle development was performed at 23° C. for 60 seconds by using CD-2060 (manufactured by Fujifilm Electronic Materials), a rinse treatment was performed with pure water on a glass substrate on which a beta coloration layer was formed, and spray drying was performed.
(§4) The heating treatment (post baking) was performed for 300 seconds by using a hot plate of 200° C., so as to obtain a near infrared ray absorption filter.
After the near infrared ray absorption filter was heated to 260° C. for 30 minutes by a hot plate, the ΔEab value of a color difference before and after heat resistance test was measured using a color meter MCPD-1000 (manufactured by Otsuka Electronics Co., Ltd.), so as to evaluate a criterion below. A smaller ΔEab value indicates more satisfactory heat resistance.

Data set [3] in a line: Light fastness of near infrared ray absorption filter (ΔEab before/after xenon lamp). Particulars: filter 1.0 μm, 7.5 mass % compound; xenon lamp 50,000 lux for 20 hours; ΔEab class. The protocol:
as §1, §2, §3, §4
After the near infrared ray absorption filter was irradiated with a xenon lamp was applied by 50,000 lux for 20 hours (corresponding to 1,000,000 lux·h), an ΔEab value of a color difference before and after a light-fast test was measured. A smaller ΔEab value indicates more satisfactory light fastness.
The ΔEab value is a value obtained from a color difference equation below according to a CIE 1976 (L*, a*, b*) space color system (Handbook of Color Science, New Edition, edited by the Color Science Association of Japan, (1985), p. 266). ΔEab={(ΔL*)^2[…](Δa*)^2+(Δb*)^2}^1/2

Data set [4] can be described thus: Solubility of the compound to propylene glycol monomethyl ether acetate. Particulars: visually observed. From the text:
Solubility of the compound to propylene glycol monomethyl ether acetate was visually observed.

Data set [5] is described as follows: Evaluation of maximum absorption wavelength, half-width and absorbance ratio (liquid absorption spectrum). Particulars: measuring solvent chloroform; 2.5×10^−6 mol/L; optical path length 10 mm. This is another data set of the same source.

Each structure is given as a SMILES string.

Take `CCCCCCCC/C=C\CCCCCCCCOc1cccc(-c2c3/c(=C(\C#N)c4cnc5cc(Cl)c(Cl)cc5n4)n(B(c4ccccc4)c4ccccc4)c(-c4cccc(OCCCCCCCC/C=C\CCCCCCCC)c4)c3/c(=C(\C#N)c3cnc4cc(Cl)c(Cl)cc4n3)n2B(c2ccccc2)c2ccccc2)c1` [Compound D-5]: in data set [1], the Half-width stood at 29 nm and the Maximum absorption wavelength stood at 884 nm. Also, in data set [2], the Heat resistance is 5 (ΔEab value<3). In data set [3], the Light fastness is on record as 5 (ΔEab value<3). Also, the Solubility result in data set [4] is “B (Solubility 0.5% or greater and less than 2%)”. In addition, the “Absorbance ratio (550 nm/λmax)” value in data set [5] was found to be 0.01.

For the compound `Cc1cc2ncc(/C(C#N)=c3/c4c(-c5cccc(OCC(CCC(C)CC(C)(C)C)C(C)CC(C)(C)C)c5)n(B(c5ccccc5)c5ccccc5)/c(=C(/C#N)c5cnc6cc(C)c(C)cc6n5)c4c(-c4cccc(OCC(CCC(C)CC(C)(C)C)C(C)CC(C)(C)C)c4)n3B(c3ccccc3)c3ccccc3)nc2cc1C` [Compound D-6], in data set [1], the Half-width is reported as 32 nm and the Maximum absorption wavelength is recorded as 872 nm. Moreover, the Heat resistance in data set [2] is 5 (ΔEab value<3). For the same compound, the Light fastness in data set [3] is listed as 5 (ΔEab value<3). Further, the Solubility entry in data set [4] is “A (Solubility 2% or greater)”. Also, in data set [5], the “Absorbance ratio (550 nm/λmax)” value is listed as 0.01.

Values taken from patent US10273251B2, “Composition, cured film, near infrared ray absorption filter, solid-state imaging device, infrared sensor, and compound” (FUJIFILM Corporation, priority 2014, dated 2019).
